Tested on: DYT1 knockin (Tor1a^delGAG/+) murine embryonic fibroblasts (MEFs)
Assay: Untargeted LC/MS/MS proteomics of EVs from DYT1 MEFs exposed 24 hours to drug, compared with untreated DYT1 (Het) MEFs
Format: cell-based, mouse
Method: Methods for isolation and purification of exosomes and extracellular vesicles (EV) were extensively reviewed. Experiments were performed to arrive at a robust and reproducible protocol. The protocol used herein is that set forth in Théry et al, 2006, which is incorporated by reference for it teaching of this protocol. This protocol involves depleting serum-derived EVs from cell culture media by overnight ultracentrifugation and exchanging media for 1% FBS EV-depleted media. Media is then collected from cells following a 24-hour conditioning period and EVs are isolated by 18-hour ultracentrifugation at 100,000 g (FIG. 1A).
EVs were isolated from media of cultured murine embryonic fibroblasts (MEFs) prepared in-house according to protocols described by Xu 2005 from DYT1 knockin mice (Tor1a^delGAG/+) (Goodchild R E, et al. (2005) Neuron. 48:923-932) and littermate wild-type (WT) controls. The cultured MEFs from the DYT1 mice were exposed for 24 hours to Ritonavir (RTV) while the MEFs from WT mice were exposed to vehicle, ISRIB, or Salubrinal (SAL). The EVs isolated from these WT cells and DYT1 were characterized by untargeted proteomics and RNA-seq to identify differentially expressed proteins and RNAs as candidate biomarkers. Experimenter and Proteomics core staff were blinded to genotype of cell cultures throughout preparation and analysis phases.
Samples were first normalized to 20 μg and spiked with undigested casein at a total of 40 fmol/μg, 80 fmol/μg, or 160 fmol/μg, then reduced with 10 mM dithiolthreitol for 30 minute at 80° C. and alkylated with 20 mM iodoacetamide for 30 minutes at room temperature. Next, the samples were supplemented with a final concentration of 1.2% phosphoric acid and 741 μL of S-Trap (Protifi) binding buffer (90% MeOH/100 mM […]). Proteins were trapped on the S-Trap, digested using 20 ng/μL sequencing grade trypsin (Promega) for 1 hour at 47° C., and eluted using 50 mM TEAB, followed by 0.2% FA, and lastly using 50% CAN/0.2% FA. All samples were then lyophilized to dryness and resuspended in 40 μL 1% TFA/2% acetonitrile containing 12.5 fmol/μL yeast alcohol dehydrogenase (ADH_YEAST). A QC Pool was created from 3 uL of each sample. All QC Pools were run periodically throughout the acquisition period.
Quantitative LC/MS/MS was performed on 2 μL of each sample, using a nanoAcquity UPLC system (Waters Corp) coupled to a Thermo Orbitrap Fusion Lumos high resolution accurate mass tandem mass spectrometer (Thermo) via a nanoelectrospray ionization source. Briefly, the sample was first trapped on a Symmetry C18 20 mm×180 μm trapping column (5 μL/min at 99.9/0.1 v/v water/acetonitrile), after which the analytical separation was performed using a 1.8 μm Acquity HSS T3 C18 75 μm×250 mm column (Waters Corp.) with a 90 minute linear gradient of 5% to 30% acetonitrile with 0.1% formic acid at a flow rate of 400 nanoliters/minute (nL/min) with a column temperature of 55° C. Data collection on the Fusion Lumos mass spectrometer was performed in a data-dependent acquisition (DDA) mode of acquisition with a r=120,000 (@ m/z 200) full MS scan from m/z 375-1500 with a target AGC value of 2e5 ions. MS/MS scans were acquired at Rapid scan rate (Ion Trap) with an AGC target of 5e3 ions and a max injection time of 100 ms. The total cycle time for MS and MS/MS scans was 2 seconds. A 20 second dynamic exclusion was employed to increase depth of coverage. The total analysis cycle time for each sample injection was approximately 2 hours.

CC(C)c1nc(CN(C)C(=O)N[C@H](C(=O)N[C@@H](Cc2ccccc2)C[C@H](O)[C@H](Cc2ccccc2)NC(=O)OCc2cncs2)C(C)C)cs1 [RTV, Ritonavir]
Abs Z Score Sum (Geno + RTV) (EV protein Sptan1 (P16546)): 6.02 | Abs Z Score Sum (Geno + RTV) (EV protein Spthn1 Q62261): 6.23 | Abs Z Score Sum (Geno + RTV) (EV protein Srsf7 Q8BL97): 5.72 | Abs Z Score Sum (Geno + RTV) (EV protein Ssb (P32067)): 5.45 | RTV Direction Opposite dE? (EV protein Ssb (P32067)): yes | Abs Z Score Sum (Geno + RTV) (EV protein Ssbp1 (Q9CYR0)): 12.21 | RTV Direction Opposite dE? (EV protein Ssbp1 (Q9CYR0)): yes | RTV Direction Opposite dE? (EV protein Svep1 (A2A0A0)): yes | Abs Z Score Sum (Geno + RTV) (EV protein Tars (Q9D0R2)): 9.50 | Abs Z Score Sum (Geno + RTV) (EV protein Tra2b (P62996)): 6.63 | RTV Direction Opposite dE? (EV protein Tra2b (P62996)): yes | Abs Z Score Sum (Geno + RTV) (EV protein Ube2n P61089): 8.62 | Abs Z Score Sum (Geno + RTV) (EV protein Upf1 (Q9..)): 9.02 | Abs Z Score Sum (Geno + RTV) (EV protein Usol Q9Z1Z0): 12.14 | Abs Z Score Sum (Geno + RTV) (EV protein Vapa (Q9WV55)): 8.93 | RTV Direction Opposite dE? (EV protein Vapa (Q9WV55)): yes | Direction Opposite dE? (EV protein: 26S proteasome non-ATPase regulatory subunit 8): yes | Direction Opposite dE? (EV protein: 60S [?] subunit biogenesis protein [?] homolog): yes | Direction Opposite dE? (EV protein: 60S ribosomal protein [?]): yes | Direction Opposite dE? (EV protein: 116 kDa [?] small nuclear ribonucleoprotein component): yes | Direction Opposite dE? (EV protein: AP-3 complex subunit [?]): yes | Direction Opposite dE? (EV protein: ATP-dependent RNA helicase [?]): yes | Direction Opposite dE? (EV protein: Acyl-protein thioesterase 2): yes | Direction Opposite dE? (EV protein: Alpha-crystallin B chain): yes | Direction Opposite dE? (EV protein: Anaphase-promoting complex subunit 2): yes | Direction Opposite dE? (EV protein: Anaphase-promoting complex subunit 4): yes | Direction Opposite dE? (EV protein: Anaphase-promoting complex subunit 5): yes | Direction Opposite dE? (EV protein: Calponin-3): yes | Direction Opposite dE? (EV protein: Cell [?] cycle protein [?] homolog): yes | Direction Opposite dE? (EV protein: Cell division cycle protein 27 homolog): yes | Direction Opposite dE? (EV protein: Choline transporter-like protein 1): yes | Direction Opposite dE? (EV protein: Coiled-coil domain-containing protein 22): yes | Direction Opposite dE? (EV protein: Complement C1q [?] -related protein 3): yes | Direction Opposite dE? (EV protein: Cullin-2): yes | Direction Opposite dE? (EV protein: Cullin-5): yes | Direction Opposite dE? (EV protein: Cullin-7): yes | Direction Opposite dE? (EV protein: Cytosolic purine [?] -nucleotidase): yes | Direction Opposite dE? (EV protein: DNA [?] (r264)): yes | Direction Opposite dE? (EV protein: DNA [?] licensing factor MCM4): yes | Direction Opposite dE? (EV protein: DNA ligase 1): yes | Direction Opposite dE? (EV protein: DNA replication licensing factor MCM5): yes | Direction Opposite dE? (EV protein: DNA replication licensing factor [?]): yes | Direction Opposite dE? (EV protein: DNA-directed RNA polymerase II subunit RPB1): yes | Direction Opposite dE? (EV protein: DNA-directed RNA polymerase II subunit RPB2): yes | Direction Opposite dE? (EV protein: DNA-directed RNA polymerase II subunit RPB3): yes | Direction Opposite dE? (EV protein: DNA-directed RNA polymerase [?] subunit RPA2): yes | Direction Opposite dE? (EV protein: DNA-directed RNA polymerases I, II, and III subunit RPABC3): yes | Direction Opposite dE? (EV protein: DNA-directed RNA polymerases I, II, and III subunit [?]): yes | Direction Opposite dE? (EV protein: Developmentally-regulated GTP-binding protein 2): yes | Direction Opposite dE? (EV protein: Double-strand-break repair protein rad21 homolog): yes | Direction Opposite dE? (EV protein: Dual specificity mitogen-activated protein kinase kinase 4): yes | Direction Opposite dE? (EV protein: Dynactin subunit 4): yes | Direction Opposite dE? (EV protein: E3 ubiquitin-protein ligase [?]): yes | Direction Opposite dE? (EV protein: Elongin-B): yes | Direction Opposite dE? (EV protein: Extended synaptotagmin-1): yes | Direction Opposite dE? (EV protein: Gamma-tubulin complex component 2): yes | Direction Opposite dE? (EV protein: General vesicular transport factor p115): yes | Direction Opposite dE? (EV protein: Glucose-6-phosphate 1-dehydrogenase [?]): yes | Direction Opposite dE? (EV protein: Glutathione S-transferase omega-1): yes | Direction Opposite dE? (EV protein: Glycosylated lysosomal membrane protein): yes | Direction Opposite dE? (EV protein: Golgi reassembly-stacking protein 2): yes | Direction Opposite dE? (EV protein: Heterogeneous nuclear ribonucleoprotein H): yes | Direction Opposite dE? (EV protein: Histone-arginine methyltransterase CARM1): yes | Direction Opposite dE? (EV protein: Immunity-related GTPase family M protein 1): yes | Direction Opposite dE? (EV protein: Importin-7): yes | Direction Opposite dE? (EV protein: Inositol monophosphate 1): yes | Direction Opposite dE? (EV protein: Insulin-like growth factor 1 receptor): yes | Direction Opposite dE? (EV protein: Integrin beta- 3): yes | Direction Opposite dE? (EV protein: Lupus [?] protein homolog): yes | Direction Opposite dE? (EV protein: Lysine-specific histone demethylase [?]): yes | Direction Opposite dE? (EV protein: Mediator [?] RNA polymerase II transcription subunit 23): yes | Direction Opposite dE? (EV protein: Metastasis-associated protein [?] (r222)): yes | Direction Opposite dE? (EV protein: Metastasis-associated protein [?] (r261)): yes | Direction Opposite dE? (EV protein: Microtubule-associated protein [?]): yes | Direction Opposite dE? (EV protein: N-alpha-acetyltransferase 10): yes | Direction Opposite dE? (EV protein: Nerine arginine-rich splicing factor [?]): yes | Direction Opposite dE? (EV protein: Nuclear [?] complex protein [?]): yes | Direction Opposite dE? (EV protein: Nuclear cap-binding protein subunit 1): yes | Direction Opposite dE? (EV protein: Nuclear receptor-binding protein): yes | Direction Opposite dE? (EV protein: NudC domain-containing protein 1): yes | Direction Opposite dE? (EV protein: Phospholipase D3): yes | Direction Opposite dE? (EV protein: Phosphoribosyl pyrophosphate synthase-associated protein 1): yes | Direction Opposite dE? (EV protein: Probable ubiquitin carboxyl-terminal hydrolase [?]): yes | Direction Opposite dE? (EV protein: Proenkephalin-A): yes | Direction Opposite dE? (EV protein: Protein O-GlcNAcase): yes | Direction Opposite dE? (EV protein: Protein RMD5 homolog A): yes | Direction Opposite dE? (EV protein: Protein [?] 14 homolog): yes | Direction Opposite dE? (EV protein: Protein [?] (r160)): yes | Direction Opposite dE? (EV protein: Protein disulfide-isomerase A4): yes | Direction Opposite dE? (EV protein: RNA-binding protein [?]): yes | Direction Opposite dE? (EV protein: Ran-binding protein 10): yes | Direction Opposite dE? (EV protein: Ras-related protein Rab-6A): yes | Direction Opposite dE? (EV protein: Ribosome biogenesis protein BOP1): yes | Direction Opposite dE? (EV protein: Ribosome production factor 2 homolog): yes | Direction Opposite dE? (EV protein: Serine threonine-protein phosphatase 2A 56 kDa regulatory subunit gamma isoform): yes | Direction Opposite dE? (EV protein: Sorting nexin-1): yes | Direction Opposite dE? (EV protein: Splicing factor 3B subunit 4): yes | Direction Opposite dE? (EV protein: Structural maintenance of [?] protein 2): yes | Direction Opposite dE? (EV protein: Transformer-2 protein homolog beta): yes | Direction Opposite dE? (EV protein: Trascriptional activator protein [?] -alpha): yes | Direction Opposite dE? (EV protein: Ubiquitin-conjugating enzyme [?]): yes | Direction Opposite dE? (EV protein: WD repeat-containing protein [?]): yes | Direction Opposite dE? (EV protein: [?] (r162)): yes | Direction Opposite dE? (EV protein: [?] -1 (r154)): yes | Direction Opposite dE? (EV protein: [?] -1 (r232)): yes | Direction Opposite dE? (EV protein: [?] -associated membrane protein-associated protein A): yes | Direction Opposite dE? (EV protein: [?] -promoting complex subunit 1): yes | Direction Opposite dE? (EV protein: [?] -related [?] -associated actin-dependent regulator [?] chromatin subfamily A member 5): yes | Direction Opposite dE? (EV protein: [?] complex subunit 2): yes | Direction Opposite dE? (EV protein: [?] kinase): yes | Direction Opposite dE? (EV protein: [?] membrane protein 2): yes | Direction Opposite dE? (EV protein: [?] myosin- [?]): yes | Direction Opposite dE? (EV protein: [?] repeat-containing protein 5A): yes | Direction Opposite dE? (EV protein: [?] ubiquitin-protein ligase [?]): yes | Direction Opposite dE? (EV protein: [?] von Willebrand factor type A, [?] and pentraxin domain-containing protein 1): yes | Direction Opposite dE? (EV protein: p21-activated protein kinase-interacting protein 1): yes
